Earlier results as cited in PMC12018205, “Mutant protein chemical rescue: From mechanisms to therapeutics” (The Journal of Biological Chemistry, 2025).

Key:
[1] = tested on: ornithine transcarbamylase R57G variant
[2] = tested on: I278T CBS; design: method as in PMID 17540596
[3] = tested on: AS B (asparagine synthetase B) Arg325 to Ala mutant; design: method as in PMID 9139684; settings: 50 mM rescue agent
[4] = tested on: R359C GS (glutamine synthetase); design: method as in PMID 7912599; settings: for rescue of kcat / reactivation of R359C mutant: covalent modification of Cys
[5] = tested on: Lys80-mutant leucine dehydrogenase; settings: One M; from 1.5% unrescued
[6] = tested on: rationally designed proteins and temperature-sensitive library mutants in yeast
[7] = tested on: Y51A-mutant xylose reductase; settings: NAD+-dependent oxidation of xylitol
[8] = tested on: tripeptidyl peptidase I; design: method as in PMID 20340139; settings: one form
[9] = tested on: HDAC8; design: method as in PMID 26463496; settings: multiple forms
[10] = tested on: clostridial GDH D156S mutant
[11] = tested on: D189S trypsin
[12] = tested on: mutant p53 tumors; design: method as in PMID 10617466; settings: mouse xenograft studies
[13] = tested on: pyruvate kinase C9S/C268S/K221C triple mutant; settings: aminoethylation of K221C
[14] = tested on: E361G-mutant β-galactosidase; settings: E361G mutant rescued
[15] = tested on: galactocerebrosidase; design: method as in PMID 24913062; settings: Krabbe disease
[16] = tested on: N370S-mutant β-glucosidase; design: method as in PMID 12434014
[17] = tested on: mutant forms of CFTR; design: method as in PMID 19846789; settings: some mutant forms; epithelial cell membranes
[18] = tested on: mutant α-galactosidase A (GalA); design: method as in PMID 9883849; settings: prevents aggregation in the endoplasmic reticulum
[19] = tested on: β-glycosidase (β-gly) W33G mutant; design: method as in PMID 22655749
[20] = tested on: rat pancreatic carboxypeptidase A R127A mutant; design: method as in PMID 1304353; settings: up
[21] = tested on: rat pancreatic carboxypeptidase A R127M mutant; design: method as in PMID 1304353
[22] = tested on: trehalose phosphorylase R507A mutant; design: method as in PMID 18205830; settings: up
[23] = tested on: Q227L Gα (Gsα subunit); settings: substrate-assisted catalysis
[24] = tested on: aspartate aminotransferase K258C mutant; design: method as in PMID 1907854; settings: aminoethylation of K258C
[25] = tested on: Y14G-mutant ketosteroid isomerase; settings: 2 mM
[26] = tested on: Y319A TbtD; settings: 10 mM
[27] = tested on: Csk, Src, and Abl kinases Arg to Ala mutants
[28] = tested on: β-class carbonic anhydrase Asp34 to Ala mutant; design: method as in PMID 12107142; settings: without affecting kcat/KM
[29] = tested on: subtilisin H64A mutant; design: method as in PMID 2059622; settings: much lesser degree than His-containing substrate
[30] = tested on: SpyCas9 H840A and H840G mutants; design: method as in PMID 33428390; settings: 100 mM; both H840 mutants
[31] = tested on: H122G NDPK; design: method as in PMID 10200157
[32] = tested on: R388A v-Src in SYF MEF cells; settings: live cells, FRET-based cell sensor
[33] = tested on: cytomegalovirus protease assemblin His to Gly mutant; design: method as in PMID 16036911; settings: in vitro and in mammalian cells
[34] = tested on: Paenibacillus sp. dextranase glutamate mutants; settings: high concentration of 2.4 M
[35] = tested on: S-mandelate dehydrogenase R277G mutant; design: method as in PMID 10955993
[36] = tested on: mutant PAH (phenylalanine hydroxylase); settings: PAH stabilization and enhancement of enzyme kinetics

N=C(N)NCCC[C@H](N)C(=O)O [arginine]
restoration of R57G variant activity [1]: not

OC[C@@H](O)[C@@H](O)[C@H](O)[C@@H](O)CO [sorbitol]
rescue of I278T CBS by chemical chaperones [2]: partially rescued

Cl.N=C(N)N [Guanidinium hydrochloride]
rescued kcat, within % of the WT enzyme ([1]; R57G variant): ≤ 10% | stimulation of kcat ([1]; R57G variant): 2000 fold | EC50 ([1]; R57G variant, read-out: half-maximal rescue concentration (Kr)): 22 mM | specific activity restored, % of the WT enzyme [3]: ~15%

N=C(N)CCl [2-CA, 2-chloroacetamidine]
kcat restored, % of the value of the WT enzyme ([4]; R359C GS after covalent modification of Cys): 70%

c1ccncc1 [pyridine]
restoration of R57G variant activity [1]: not

N [ammonia]
deamination activity restored, % of WT leucine dehydrogenase [5]: 20%

N=C(N)N [guanidinium]
extent of rescue in vivo [6]: weak

Br [bromide ion]
rescue of Y51A-mutant xylose reductase [7]: partially rescued

C[S+](C)[O-] [dimethyl sulfoxide]
extent of rescue in vivo [6]: weak | rescue of I278T CBS by chemical chaperones [2]: partially rescued | rescue of tripeptidyl peptidase I [8]: partially rescued

O=C(NC(=S)Nc1ccccc1)c1ccccc1 [N-(phenylcarbamothioyl)-benzamide]
rescue of HDAC8 mutants [9]: partially or fully rescued

NCCCBr [3-bromopropylamine]
rescue of kcat / reactivation of R359C mutant [4]: could not reactivate

F [Fluoride, fluoride]
maximum extent of rescue, forward reaction, increase over baseline [10]: 1000 fold | maximum extent of rescue, reverse reaction, increase over baseline [10]: 4 fold | EC50 ([10]; read-out: Kr, reverse reaction, reductive amination): 40 mM

CC(=O)O [acetate]
enhancement of D189S trypsin activity [11]: could enhance the activity | rescue for substrates bearing Arg at P1 versus Lys ([11]; D189S trypsin): 10 fold

COc1ccc(/C=C/c2nc(NCCCN(C)C)c3ccccc3n2)cc1 [CP-31398]
effect on tumors [12]: shrunk tumors

O=C(NCCI)C(F)(F)F [N-[2-iodoethyl]trifluoroacetamide]
activity rescued, % of the WT pyruvate kinase activity [13]: 4.5%

[N-]=[N+]=[N-] [azide]
enhancement in transglycosylation activity over the WT enzyme [14]: 177 fold

CN1[C@@H](CC(=O)c2ccccc2)CCC[C@H]1C[C@H](O)c1ccccc1 [α-lobeline]
rescue of galactocerebrosidase [15]: rescued

O=c1c(-c2ccc(O)c(O)c2)coc2cc(O)ccc12 [3′,4′,7-trihydroxyisoflavone]
rescue of galactocerebrosidase [15]: rescued

C[N+](C)(C)[O-] [trimethylamine-N-oxide]
extent of rescue in vivo [6]: weak

CCCCCCCCCN1C[C@H](O)[C@@H](O)[C@H](O)[C@H]1CO [N-(n-nonyl)deoxynojirimycin]
effect on mutant β-glucosidase stability and trafficking to the lysosome [16]: shows promise in promoting the stability

CC(C)(C)c1cc(C(C)(C)C)c(NC(=O)c2c[nH]c3ccccc3c2=O)cc1O [Ivacaftor]
effect on mutant CFTR [17]: enhances their presence and transport function

OC[C@H]1NC[C@H](O)[C@@H](O)[C@H]1O [DGJ, deoxygalactonojirimycin]
effect of binding on mutant GalA [18]: stabilize mutant GalA

N=C(N)CSSCC(=N)N [DTBA, 2,2′-dithiobis(acetamidine)]
rescue of kcat / reactivation of R359C mutant [4]: hardly affected

c1ccc2[nH]ccc2c1 [indole]
rescue of β-gly [19]: fully rescued

N=C(N)N [Guanidine]
increase in kcat of the R127A mutant [20]: up to 100 fold | rescue of the R127M mutant [21]: rescued | enhancement of enzymatic activity [22]: up to 50 fold

3,4-diamino-benzophenone phosphonoamidate-GTP [DABP-GTP]
GTPase activity rescue with GTP analog as substrate [23]: nearly WT activity

CCNC(=N)N [ethylguanidine]
increase in kcat of the R127A mutant [20]: up to 100 fold

NCCBr [2-bromoethylamine]
enzymatic activity restored, % of WT aspartate aminotransferase [24]: 7%

Oc1ccccc1 [phenol]
rescue of activity over baseline [25]: about 10 fold | rescued enzyme activity, % of WT activity [25]: below 1% | effect on pyridine product formation [26]: substantial increase in pyridine formation

c1c[nH]cn1 [imidazole]
rescue of activity of Arg to Ala mutants [27]: > 100 fold | EC50 ([27]; read-out: EC50 of tyrosine kinase rescue): ~5 mM | pKa: approximately 7 | rescue of kcat defect [28]: rescued this defect in kcat | restoration of catalytic activity [29]: partially restored | rescue of in vitro nuclease activity [30]: substantially rescued | rescue of kcat/KM,ATP ([31]; ATP): 40 fold | rescued kcat/KM,ATP, fold below that of the WT enzyme ([31]; ATP): 50 fold | kcat/KM,ATPγS, fold higher than the unrescued condition ([31]; ATPγS): 100 fold | rescued kcat/KM,ATPγS, fold below WT ([31]; ATPγS): 2 fold | time to observed tyrosine phosphorylation after treatment [32]: ≤ 1 min | complementation of lost proteolytic activity [33]: complemented efficiently

O=CO [formate]
rescue of glutamate mutants [34]: effective | enhancement in transglycosylation activity over the WT enzyme [14]: 177 fold

Cn1ccnc1 [1-methylimidazole]
effectiveness as rescue agent [35]: not effective

C[C@H](O)[C@H](O)[C@H]1CNc2nc(N)[nH]c(=O)c2N1 [tetrahydrobiopterin]
rescue of mutant PAH by excess cofactor [36]: rescue mutant forms of PAH

CN(C)C(=N)N [1,1-dimethylguanidine]
effectiveness as rescue agent [35]: not effective

CN=C(N)N [methylguanidine]
increase in kcat of the R127A mutant [20]: up to 100 fold | rescued KM, within fold of the WT value [35]: ≤ 30 fold | rescued kcat, within fold of the WT value [35]: ≤ 1.5 fold | EC50 ([35]; read-out: half-maximal rescue (Kr)): ~10 mM
